Laboratory results from the NIST ThermoML archive (doi:10.1021/je100679s).
± gives the expanded uncertainty stated by the source.

Legend:
[1] = 101 kPa, Liquid; for electrical conductivity: DDS-307 conductivity meter
[2] = xn = mol fraction of the nth substance listed; settings: 101 kPa, Liquid, x2 = 0

CCCCCCn1cc[n+](C)c1C.O=S(=O)([N-]S(=O)(=O)C(F)(F)F)C(F)(F)F
[1]
Settings | electrical conductivity [S/m] | mass density [kg/m3]
293.15 K | – | 1358.19 ± 2.9
298.15 K | 0.108 ± 0.0068 | 1353.11 ± 2.8
303.15 K | 0.158 ± 0.0097 | 1348.71 ± 2.8
308.15 K | 0.213 ± 0.013 | 1344.29 ± 2.8
313.15 K | 0.271 ± 0.016 | 1339.88 ± 2.8
318.15 K | 0.319 ± 0.019 | 1335.47 ± 2.7
323.15 K | 0.369 ± 0.022 | 1331.06 ± 2.7
328.15 K | 0.426 ± 0.026 | 1326.65 ± 2.7
333.15 K | 0.48 ± 0.029 | 1322.24 ± 2.7

COC(=O)OC [dimethyl carbonate]
[1]
Settings | mass density [kg/m3]
293.15 K | 1069.92 ± 0.69
298.15 K | 1063.34 ± 0.67
303.15 K | 1056.72 ± 0.65
308.15 K | 1050.07 ± 0.62
313.15 K | 1043.39 ± 0.6
318.15 K | 1036.69 ± 0.57
323.15 K | 1029.94 ± 0.55
328.15 K | 1023.25 ± 0.53
333.15 K | 1016.32 ± 0.5

COC(=O)OC [dimethyl carbonate] + CCCCCCn1cc[n+](C)c1C.O=S(=O)([N-]S(=O)(=O)C(F)(F)F)C(F)(F)F
[2]
Settings | mass density [kg/m3]
293.15 K | 1069.92 ± 0.69
298.15 K | 1063.34 ± 0.67
303.15 K | 1056.72 ± 0.65
308.15 K | 1050.07 ± 0.62
313.15 K | 1043.39 ± 0.6
318.15 K | 1036.69 ± 0.57
323.15 K | 1029.94 ± 0.55
328.15 K | 1023.25 ± 0.53
333.15 K | 1016.32 ± 0.5
